Counter-ions that a name gives are not always drawn.
Legend:
Type in all cases: cell-based, Human
THLE3 and HS5 = experiment: Toxicity and tolerability in noncancerous normal tissue-derived cell lines; conditions: THLE3 and HS5 versus neuroblastoma cells
Experimental: (§1) Cell viability was measured in real time using RealTime-Glo MT Cell Viability Assay as according to manufacturer's instructions from Promega. Cells were seeded at 1 × 10^4 cells per well and treated with a range of doses of indicated antagonists, followed by continuous bioluminescence reading every 24 hours for 3 days using luminescent plate reader, Varioskan (SkanIT software). IC50 was determined using GraphPad Prism software.
To evaluate this, noncancerous normal tissue-derived cell lines THLE3 and HS5 were utilized to evaluate toxicity and tolerability. […] On the basis of their overall potency and specificity toward neuroblastoma cells over noncancerous normal cells, A4, B3, and BV6 were selected as the more efficacious antagonists to be studied further in subsequent experiments (Fig. 2A).

NB1 = experiment: RealTime-Glo MT cell viability assay; conditions: Homo sapiens
Experimental: as §1
(§2) To determine their efficacy in neuroblastoma, a panel of neuroblastoma cell lines including neuroblastoma patient-derived cell lines and noncancerous normal tissue-derived cell lines were treated with increasing doses of each antagonist (0–100 µmol/L), followed by real-time measurement of cell viability every 24 for 72 hours.

[1] = system: NBL-07-0317 patient-derived neuroblastoma cells; experiment: RealTime-Glo MT cell viability assay; conditions: Homo sapiens, Neuroblastoma cell
Experimental: as §1, §2

SK-N-SH = experiment: RealTime-Glo MT cell viability assay; conditions: Homo sapiens
Experimental: as §1, §2

[2] = system: NBL27-0218A patient-derived neuroblastoma cells; experiment: RealTime-Glo MT cell viability assay; conditions: Homo sapiens, Neuroblastoma cell
Experimental: as §1, §2

CHP212 = experiment: RealTime-Glo MT cell viability assay; conditions: Homo sapiens, CHP-212
Experimental: as §1, §2

KELLY [3] = experiment: RealTime-Glo MT cell viability assay; conditions: Homo sapiens
Experimental: as §1, §2

BE(2)-C [4] = experiment: RealTime-Glo MT cell viability assay; conditions: Homo sapiens
Experimental: as §1, §2

[5] = system: NBL16-0118 patient-derived neuroblastoma cells; experiment: RealTime-Glo MT cell viability assay; conditions: Homo sapiens, Neuroblastoma cell
Experimental: as §1, §2

NLF = experiment: RealTime-Glo MT cell viability assay; conditions: Homo sapiens
Experimental: as §1, §2

IMR-32 = experiment: RealTime-Glo MT cell viability assay; conditions: Homo sapiens
Experimental: as §1, §2

[6] = system: NBL01-1116 patient-derived neuroblastoma cells; experiment: RealTime-Glo MT cell viability assay; conditions: Homo sapiens, Neuroblastoma cell
Experimental: as §1, §2

SK-N-AS [7] = experiment: RealTime-Glo MT cell viability assay; conditions: Homo sapiens
Experimental: as §1, §2

[8] = system: neuroblastoma cells across the panel of cell lines; experiment: Cell viability, IC50 range across the panel; conditions: Homo sapiens, Neuroblastoma cell; range over cell lines, doses 0–100 µmol/L, viability every 24 for 72 hours; read-out: IC50 against neuroblastoma cells across the panel of cell lines
Experimental: as §1, with “([…]” for “(SkanIT”, “software. To determine their efficacy in neuroblastoma, a panel of neuroblastoma cell lines including neuroblastoma patient-derived cell lines and noncancerous normal tissue-derived cell lines were treated with increasing doses of each antagonist (0-100 μmol/L), followed by real-time measurement of cell viability every 24 for 72 hours. […] Supplementary Table S2; Fig. 2A). […] Fig. 2A).” for “software.”

THLE3 (liver origin) = experiment: RealTime-Glo MT cell viability assay, noncancerous normal cells; conditions: Homo sapiens
Experimental: as §1, §2
(§3) To evaluate this, noncancerous normal tissue-derived cell lines THLE3 and HS5 were utilized to evaluate toxicity and tolerability.

HS5 (bone marrow origin) = experiment: as above; conditions: Homo sapiens
Experimental: as §1, §2, §3

KELLY [9] = experiment: Drug interactions assay (Chou-Talalay CI, DRI); conditions: 48 hours
Experimental: (§4) Drug interactions between XIAP-specific antagonist A4 and vincristine or topotecan were determined using the combination index (CI) by Chou and Talalay which was established on the basis of the mass-action law principle to derive the median-effect equation ([25]). […] Cell viability was measured and CI and dose reduction index (DRI) values were quantified using the CompuSyn software by Chou–Talalay. Areas under the dose–response curves were calculated using the trapezoidal method and compared using paired t test.
(§5) For treatment of high-risk neuroblastoma, current standard-of-care utilizes intensive multimodal therapy involving combinations of multiple cytotoxic agents. […] To analyze potential drug interactions, treatment of BE(2)-C and KELLY cells with A4 in combination with either vincristine or topotecan was examined. Using Chou–Talalay method, the drug interaction effect/type determined by the drug combination (CI) index is as follows: CI <1 (synergistic effect); CI = 1 (additive effect); CI >1 (antagonistic effect).
(§6) CI was generated using CompuSyn software by Chou–Talalay ([25]). CI60–90 represents the average CI at 60%–90% cell death. CI <1 denotes synergistic effect; CI = 1 denotes addictive effect and CI >1 denotes antagonistic effect. […] DRI was generated using CompuSyn software by Chou–Talalay. DRI60–90 represents the average DRI at 60%–90% cell death. DRI <1 denotes unfavorable dose reduction and DRI >1 denotes favorable dose reduction.

BE(2)-C [10] = experiment: Drug interactions assay (Chou-Talalay CI, DRI); conditions: 48 hours
Experimental: as §4, §5, §6

SK-N-AS [11] = experiment: Drug interactions assay (Chou-Talalay); conditions: in combination with A4
Experimental: as §4
DRI <1 denotes unfavorable dose reduction and DRI >1 denotes favorable dose reduction.

`CN[C@@H](C)C(=O)N[C@H](C(=O)N1CCC[C@H]1c1nc(C(=O)c2ccc(F)cc2)cs1)C1CCCCC1` [LCL161] was tested, and the “toxicity to noncancerous cells” value (THLE3 and HS5) was “more toxic toward noncancerous cells than neuroblastoma cells”, the IC50 (NB1; NB1, 24 hours) was > 60 µM and the IC50 (NB1; NB1, 48 hours) was 46.5 µM. It also gave an IC50 (NB1; NB1, 72 hours) of 27.4 µM, an IC50 ([1]; NBL-07-0317, 24 hours) of 33.6 µM and an IC50 ([1]; NBL-07-0317, 48 hours) of 31.8 µM. The IC50 ([1]; NBL-07-0317, 72 hours) was 30 µM, the IC50 (SK-N-SH; 24 hours) was 55.4 µM and the IC50 (SK-N-SH; 48 hours) was 44 µM. For the same molecule, the IC50 (SK-N-SH; 72 hours) was 33 µM, the IC50 ([2]; 24 hours) was 39 µM and the IC50 ([2]; 48 hours) was 32.5 µM. It also gave an IC50 ([2]; 72 hours) of 28.5 µM, an IC50 (CHP212; CHP212, 24 hours) of 42 µM and an IC50 (CHP212; CHP212, 48 hours) of 33 µM. The IC50 (CHP212; CHP212, 72 hours) was 31.2 µM, the IC50 (KELLY [3]; 24 hours) was 48.2 µM and the IC50 (KELLY [3]; 48 hours) was 27.6 µM. For the same molecule, the IC50 (KELLY [3]; 72 hours) was 21.2 µM, the IC50 (BE(2)-C [4]; 24 hours) was > 60 µM and the IC50 (BE(2)-C [4]; 48 hours) was 42.5 µM. For the same molecule, the IC50 (BE(2)-C [4]; 72 hours) was 32.5 µM, the IC50 ([5]; NBL16-0118, 24 hours) was 34 µM and the IC50 ([5]; NBL16-0118, 48 hours) was 27.5 µM. For the same molecule, the IC50 ([5]; NBL16-0118, 72 hours) was 22.5 µM, the IC50 (NLF; 24 hours) was 32.8 µM and the IC50 (NLF; 48 hours) was 30.2 µM. The IC50 (NLF; 72 hours) was 28.5 µM, the IC50 (IMR-32; IMR-32, 24 hours) was > 60 µM and the IC50 (IMR-32; IMR-32, 48 hours) was 30 µM. It also gave an IC50 (IMR-32; IMR-32, 72 hours) of 19 µM, an IC50 ([6]; NBL01-1116, 24 hours) of 42 µM and an IC50 ([6]; NBL01-1116, 48 hours) of 36.4 µM. For the same molecule, the IC50 ([6]; NBL01-1116, 72 hours) was 36 µM, the IC50 (SK-N-AS [7]; 24 hours) was 34 µM and the IC50 (SK-N-AS [7]; 48 hours) was 22.5 µM. The IC50 (SK-N-AS [7]; 72 hours) was 15.7 µM, the IC50 [8] was 20 to 60 µM and the IC50 (THLE3 (liver origin); THLE3, 24 hours) was > 60 µM. For the same molecule, the IC50 (THLE3 (liver origin); THLE3, 48 hours) was 24 µM, the IC50 (THLE3 (liver origin); THLE3, 72 hours) was 14.5 µM and the IC50 (HS5 (bone marrow origin); HS5, 24 hours) was 30 µM. For the same molecule, the IC50 (HS5 (bone marrow origin); HS5, 48 hours) was 18 µM and the IC50 (HS5 (bone marrow origin); HS5, 72 hours) was 15.5 µM.

For `CC[C@@]1(O)C(=O)OCc2c1cc1n(c2=O)Cc2cc3c(CN(C)C)c(O)ccc3nc2-1` [Topotecan, Topotecan hydrochloride], the “AUC of dose–response curve” value (KELLY [9]; topotecan dose axis) was 352.1±28.9 nM* luminescence and the “AUC of dose–response curve” value (BE(2)-C [10]; topotecan dose axis) was 164.6±8.6 nM* luminescence.

`CC[C@]1(O)C[C@H]2CN(CCc3c([nH]c4ccccc34)[C@@](C(=O)OC)(c3cc4c(cc3OC)N(C=O)[C@H]3[C@@](O)(C(=O)OC)[C@H](OC(C)=O)[C@]5(CC)C=CCN6CC[C@]43[C@@H]65)C2)C1` [Vincristine, Vincristine sulfate] was tested, and the “drug interaction with A4” value (SK-N-AS [11]) was “only additive effect”, the “AUC of dose–response curve” value (KELLY [9]; vincristine dose axis) was 37.5±3.9 pM* luminescence and the “AUC of dose–response curve” value (BE(2)-C [10]; vincristine dose axis) was 9.8±0.2 pM* luminescence.
